Test system: soft tissue sarcomas
Test: Phase I clinical trial in soft tissue sarcoma patients: MRI (DCE-MRI, DWI, RECIST) after two weeks of Sorafenib only treatment (TP1) versus before therapy (TP0)
Assay type: in vivo, human
Procedure: Patients with biopsy-proven, grade 2-3, deep, and >5 cm soft tissue sarcomas participated in a phase I clinical trial in which the vascular endothelial growth factor receptor (VEGFR) inhibitor, Sorafenib, was added to a preoperative chemoradiotherapy regimen. Research MRI studies were performed at time-point zero (TP0)—before therapy, TP1, after two weeks of Sorafenib only treatment, and TP2, after eight more weeks of treatment with Sorafenib plus chemoradiation therapy, followed by surgery and pathology review including estimation of tumor histologic necrosis. A total of eleven patients consented to the research MRI scans, with 9 of them having at least two DCE-MRI studies (at TP0 and TP1). In these 9 patients, five masses were located in the thigh, two in the calf, one in the knee, and one in the shoulder.
The MRI studies were performed using a 3T Siemens instrument with the body transmit and phased-array body matrix (combined with a spine matrix) receive RF coils. Following scout and axial T2-weighted MRI, sagittal diffusion-weighted imaging (DWI) was performed (in seven of the 9 patients) using a spin-echo single-shot EPI sequence with TE/TR=104/8000 ms, 24-36 cm FOV, 5 mm slice thickness with zero gap, 192×192 matrix size, and b values of 0, 500, and 1000 s/mm^2 applied in three orthogonal directions.
Subsequently, a 3D RF-spoiled gradient-echo sequence was used to acquire sagittal DCE-MRI data with 10 degree flip angle, TE/TR=[…], and 320×160 matrix size. […]
ADC trace maps were generated with manufacturer's DWI data processing software. […] The arterial input functions (AIFs) used for the quantitative analyses were directly measured from ROIs placed in a femoral artery (for thigh, knee, and calf tumors) and an axillary artery (for the shoulder mass). The whole tumor ROI DWI/DCE-MRI parameter values were calculated by averaging the ROI values from each of the image slices covering the entire tumor, weighted by the pixel numbers within the image slice ROIs. Pixel parameter values were analyzed with histograms and the amplitude and median values were obtained. […]

In the case of `CNC(=O)c1cc(Oc2ccc(NC(=O)Nc3ccc(Cl)c(C(F)(F)F)c3)cc2)ccn1` [Sorafenib], the “change in ADC (apparent diffusion coefficient)” value (% change at TP1 (two weeks of Sorafenib only) relative to TP0) is reported as “small”, the “change in tumor size (RECIST)” value (% change at TP1 (two weeks of Sorafenib only) relative to TP0, 9 patients) is reported as “small” and the “tumor vascular effect detected by DCE-MRI biomarkers” value (patients with grade 2-3 soft tissue sarcomas, after two weeks of Sorafenib only treatment (TP1)) is reported as “Tumor vascular shut-down induced by Sorafenib preceded cell death”.

— patent US20150087967A1, “METHOD AND APPARATUS USING MAGNETIC RESONANCE IMAGING FOR TISSUE PHENOTYPING AND MONITORING” (Oregon Health & Science University, priority 2012, published 2015)
